Experimental data reported in patent US20230011571A1, “SMALL MOLECULE FURIN INHIBITORS FOR TREATING INFECTIOUS DISEASES” (BP Asset V, Inc., priority 2019, published 2023).

What was measured:
Format in all cases: cell-based
dengue virus (DENV) = assay: microbe, parasite or virus in culture; details: Dengue virus, Vero, 120 h, read-out: Percent viral inhibition DENY
[1] = tested on: Chikungunya virus (CHIKV); assay: microbe, parasite or virus in culture; details: Chikungunya virus, Vero, 48 h, read-out: Percent viral inhibition CHKV
Marburg virus (MARV) = assay: organism not typed; details: Vero, 72 h, read-out: Percent viral inhibition MARV

SMILES | inhibition at 1 µM (dengue virus (DENV)) | inhibition at 1 µM [1] | inhibition at 1 µM (Marburg virus (MARV))
CN1CCN(c2ncc(Oc3cc(CN4CCO[C@H](CO)CC4)cc(-c4cc(Cl)cc(Cl)c4)n3)cn2)CC1 [Example 330, (S)-(4-((2-(3,5-dichlorophenyl)-6-((2-(4-methylpiperazin-1-yl)pyrimidin-5-yl)oxy)pyridin-4-yl)methyl)-1,4-oxazepan-7-yl)methanol] | 26.4% | 24.6% | 58.7%
CN1CCN(c2ncc(Oc3cc(CN4CCC(P(C)(C)=O)CC4)cc(-c4cc(Cl)cc(Cl)c4)n3)cn2)CC1 [Example 331, (1-((2-(3,5-dichlorophenyl)-6-((2-(4-methylpiperazin-1-yl)pyrimidin-5-yl)oxy)pyridin-4-yl)methyl)piperidin-4-yl)dimethylphosphineoxide] | 56.5% | 22.6% | 69.3%
O=C(O)CC1CCN(Cc2cc(Oc3cnc(N4CCN5CCC4C5)nc3)nc(-c3cc(Cl)cc(Cl)c3)c2)CC1 (stereo not drawn) [Example 334, 2-(1-((2-((2-(1,4-diazabicyclo[3.2.1]octan-4-yl)pyrimidin-5-yl)oxy)-6-(3,5-dichlorophenyl)pyridin-4-yl)methyl)piperidin-4-yl)acetic acid] | 20.8% | 29.6% | 41.4%
O=C(O)C1[C@H]2CCN(Cc3cc(Oc4cnc(N5CCN6CCC5C6)nc4)nc(-c4cc(Cl)cc(Cl)c4)c3)CC[C@@H]12 (stereo partly drawn) [Example 337, (1R,7S,8r)-4-((2-((2-(1,4-diazabicyclo[3.2.1]octan-4-yl)pyrimidin-5-yl)oxy)-6-(3,5-dichlorophenyl)pyridin-4-yl)methyl)-4-azabicyclo[5.1.0] octane-8-carboxylic acid] | 0% | 15.9% | 37.6%
FC1CCN(Cc2cc(Oc3cnc(N4CCN5CCC4C5)nc3)nc(-c3cc(Cl)cc(Cl)c3)c2)CC1 (stereo not drawn) [Example 338, 4-(5-((6-(3,5-dichlorophenyl)-4-((4-fluoropiperidin-1-yl)methyl)pyridin-2-yl)oxy)pyrimidin-2-yl)-1,4-diazabicyclo[3.2.1]octane] | 55.4% | 19.3% | 12.2%
CN1CCN(c2cnc(Oc3cc(CN4CCC(CC(=O)O)CC4)cc(-c4cc(Cl)cc(Cl)c4)n3)cn2)CC1 [Example 339, 2-(1-((2-(3,5-dichlorophenyl)-6-((5-(4-methylpiperazin-1-yl)pyrazin-2-yl)oxy)pyridin-4-yl)methyl)piperidin-4-yl)acetic acid] | 0% | 23.6% | 52.1%
CC(CCN1CCN(c2cnc(Oc3cc(CN4CCC(CCO)CC4)cc(-c4cc(Cl)cc(Cl)c4)n3)cn2)CC1)C(=O)O (stereo not drawn) [Example 341, 4-(4-(5-((6-(3,5-dichlorophenyl)-4-((4-(2-hydroxyethyl)piperidin-1-yl)methyl)pyridin-2-yl)oxy)pyrazin-2-yl)piperazin-1-yl)-2-methylbutanoic acid] | 31.2% | 29.2% | 50.5%
CC(C)(O)CN1CCN(c2cnc(Oc3cc(CN4CCC(CC(=O)O)CC4)cc(-c4cc(Cl)cc(Cl)c4)n3)cn2)CC1 [Example 343, 2-(1-((2-(3,5-dichlorophenyl)-6-((5-(4-(2-hydroxy-2-methylpropyl)piperazin-1-yl)pyrazin-2-yl)oxy)pyridin-4-yl)methyl)piperidin-4-yl)acetic acid] | 28.6% | 35.7% | 51%
O=C(O)CC1CCN(Cc2cc(Oc3ccc(N4CCN5CCC4C5)nn3)nc(-c3cc(Cl)cc(Cl)c3)c2)CC1 (stereo not drawn) [Example 344, 2-(1-((2-((6-(1,4-diazabicyclo[3.2.1]octan-4-yl)pyridazin-3-yl)oxy)-6-(3,5-dichlorophenyl)pyridin-4-yl)methyl)piperidin-4-yl)acetic acid] | 77.9% | 26.6% | 43.5%
CCN1CCCN(c2cnc(Oc3cc(CN4CCC(CC(=O)O)CC4)cc(-c4cc(Cl)cc(Cl)c4)n3)cn2)CC1 [Example 345, 2-(1-((2-(3,5-dichlorophenyl)-6-((5-(4-ethyl-1,4-diazepan-1-yl)pyrazin-2-yl)oxy)pyridin-4-yl)methyl)piperidin-4-yl)acetic acid] | 44% | 22.1% | 57%
CN1C[C@@H]2C[C@H]1CN2c1cnc(Oc2cc(CN3CCC(CC(=O)O)CC3)cc(-c3cc(Cl)cc(Cl)c3)n2)cn1 [Example 346, 2-(1-((2-(3,5-dichlorophenyl)-6-((5-((1S,4S)-5-methyl-2,5-diazabicyclo[2.2.1]heptan-2-yl)pyrazin-2-yl)oxy)pyridin-4-yl)methyl)piperidin-4-yl)acetic acid] | 54.6% | 9.36% | 56.8%
CC(C)N1CCN(c2cnc(Oc3cc(CN4CCC(CC(=O)O)CC4)cc(-c4cc(Cl)cc(Cl)c4)n3)cn2)CC1 [Example 347, 2-(1-((2-(3,5-dichlorophenyl)-6-((5-(4-isopropylpiperazin-1-yl)pyrazin-2-yl)oxy)pyridin-4-yl)methyl)piperidin-4-yl)acetic acid] | 56.8% | 24.9% | 57.7%
O=C(O)CC1CCN(Cc2cc(Oc3cnc(N4CCN5CCC4C5)cn3)nc(-c3cc(Cl)cc(Cl)c3)c2)CC1 (stereo not drawn) [Example 348, 2-(1-((2-((5-(1,4-diazabicyclo[3.2.1]octan-4-yl)pyrazin-2-yl)oxy)-6-(3,5-dichlorophenyl)pyridin-4-yl)methyl)piperidin-4-yl)acetic acid] | 55.8% | 35.8% | 46.6%
CC(O)CCN1CCN(c2cnc(Oc3cc(CN4CCC(CC(=O)O)CC4)cc(-c4cc(Cl)cc(Cl)c4)n3)cn2)CC1 (stereo not drawn) [Example 349, 2-(1-((2-(3,5-dichlorophenyl)-6-((5-(4-(3-hydroxybutyl)piperazin-1-yl)pyrazin-2-yl)oxy)pyridin-4-yl)methyl)piperidin-4-yl)acetic acid] | 57.6% | 26.2% | 64.5%
CN1CCN(c2cnc(Oc3cc(CN4CCC(CCO)CC4)cc(-c4cc(Cl)cc(Cl)c4)n3)cn2)CC1 [Example 350, 2-(1-((2-(3,5-dichlorophenyl)-6-((5-(4-methylpiperazin-1-yl)pyrazin-2-yl)oxy)pyridin-4-yl)methyl)piperidin-4-yl)ethanol] | 22.8% | 0% | 29.9%
CC(CC1CCN(Cc2cc(Oc3cnc(N4CCCN(C)CC4)cn3)nc(-c3cc(Cl)cc(Cl)c3)c2)CC1)C(=O)O (stereo not drawn) [Example 351, 3-(1-((2-(3,5-dichlorophenyl)-6-((5-(4-methyl-1,4-diazepan-1-yl)pyrazin-2-yl)oxy)pyridin-4-yl)methyl)piperidin-4-yl)-2-methylpropanoic acid] | 42.8% | 22.7% | 60.4%
CN1C2CC1CN(c1cnc(Oc3cc(CN4CCC(CC(=O)O)CC4)cc(-c4cc(Cl)cc(Cl)c4)n3)cn1)C2 [Example 352, 2-(1-((2-(3,5-dichlorophenyl)-6-((5-(6-methyl-3,6-diazabicyclo[3.1.l]heptan-3-yl)pyrazin-2-yl)oxy)pyridin-4-yl)methyl)piperidin-4-yl)acetic acid] | 13.1% | 31% | 47.9%
CN1CCN(c2cnc(Oc3cc(CN4CCC(OC5(C(=O)O)CC5)CC4)cc(-c4cc(Cl)cc(Cl)c4)n3)cn2)CC1 [Example 353, 1-((1-((2-(3,5-dichlorophenyl)-6-((5-(4-methylpiperazin-1-yl)pyrazin-2-yl)oxy)pyridin-4-yl)methyl)piperidin-4-yl)oxy)cyclopropanecarboxylic acid] | 51.3% | 16.6% | 35.4%
CS(=O)(=O)CCCN1CCN(c2cnc(Oc3cc(CN4CCC(CC(=O)O)CC4)cc(-c4cc(Cl)cc(Cl)c4)n3)cn2)CC1 [Example 354, 2-(1-((2-(3,5-dichlorophenyl)-6-((5-(4-(3-(methylsulfonyl)propyl)piperazin-1-yl)pyrazin-2-yl)oxy)pyridin-4-yl)methyl)piperidin-4-yl)acetic acid] | 40.8% | 17.2% | 45.2%
CCN1CCCN(c2ccc(Oc3cc(CN4CCC(CC(=O)O)CC4)cc(-c4cc(Cl)cc(Cl)c4)n3)nn2)CC1 [Example 355, 2-(1-((2-(3,5-dichlorophenyl)-6-((6-(4-ethyl-1,4-diazepan-1-yl)pyridazin-3-yl)oxy)pyridin-4-yl)methyl)piperidin-4-yl)acetic acid] | 30.2% | 22% | 52.4%
CN1CCCN(c2ccc(Oc3cc(CN4CCC(CC(=O)O)CC4)cc(-c4cc(Cl)cc(Cl)c4)n3)nn2)CC1 [Example 356, 2-(1-((2-(3,5-dichlorophenyl)-6-((6-(4-methyl-1,4-diazepan-1-yl)pyridazin-3-yl)oxy)pyridin-4-yl)methyl)piperidin-4-yl)acetic acid] | 49.3% | 30.8% | 54.3%
CN1C[C@@H]2C[C@H]1CN2c1ccc(Oc2cc(CN3CCC(CC(=O)O)CC3)cc(-c3cc(Cl)cc(Cl)c3)n2)nn1 [Example 357, 2-(1-((2-(3,5-dichlorophenyl)-6-((6-((1S,4S)-5-methyl-2,5-diazabicyclo[2.2.1]heptan-2-yl)pyridazin-3-yl)oxy)pyridin-4-yl)methyl)piperidin-4-yl)acetic acid] | 61.2% | 38.6% | 100%
CCN1CCN(c2ccc(Oc3cc(CN4CCC(CC(=O)O)CC4)cc(-c4cc(Cl)cc(Cl)c4)n3)nn2)CC1 [Example 358, 2-(1-((2-(3,5-dichlorophenyl)-6-((6-(4-ethylpiperazin-1-yl)pyridazin-3-yl)oxy)pyridin-4-yl)methyl)piperidin-4-yl)acetic acid] | 67.1% | 20.4% | 49%
